{"source": "patent US20190350224A1", "about": "“METHOD FOR IMPROVING MUSCLE FORCE OR PHYSICAL FUNCTION” (University of Washington, priority 2018, published 2019)", "origin": "cited, not measured here", "settings": "against reactive oxygen species", "data": [{"smiles": "CC1=C(/C=C/C(C)=C/C=C/C(C)=C/C=C/C=C(C)/C=C/C=C(C)/C=C/C2=C(C)C(=O)C(O)CC2(C)C)C(C)(C)CC(O)C1=O", "note": "(stereo not drawn) [astaxanthin, 3,3′-dihydroxy-β,β-carotene-4,4′-dione]", "values": [{"measurement": "antioxidant action relative to n-carotene", "result": "about 40 times"}]}]}
